Experimental data from patent publication US20080299538A1, “Pathogen Inactivation of Whole Blood” (CARIDIANBCT BIOTECHNOLOGIES, LLC, priority 2003, published 2008).
Several values for one entry are separate records, joined by “and”; a condition that tells them apart may be missing. Equal values may be shown once.

How the values were obtained:
[1] = system: white blood cells (WBCs); assay: Cytokine production in response to anti-CD3/CD28 (Cytometric Bead Assay); settings: anti-CD3/28
[2] = system: red blood cells; assay: ATP level in stored red blood cells; assay type: cell-based; settings: increased energy levels
Description: ATP level or concentration was measured in red blood cells separated from pathogen inactivated whole blood. ATP concentration is a measure of the amount of ATP present in the cells at a given time.

[3] = system: white blood cells (WBCs); assay: WBC functionality, all tested stimuli (summary statements); assay type: cell-based
[4] = system: platelets; assay: Platelet quality during storage; assay type: cell-based
Description: Platelet quality is assessed with measurements of pH, swirl, lactate production rate and glucose consumption rate on Days 1 and 5.
Platelets were separated from pathogen inactivated whole blood and markers of platelet quality were measured.

[5] = system: Hepatitis A (HAV); assay: Virus inactivation in whole blood; assay type: cell-based; settings: as a function of illumination energy
[6] = system: S. epidermidis; assay: Low bacteria titer study in whole blood; assay type: cell-based; parameters: key to Bacteria detected (+) or not detected (−) after treatment: +: some of the replicates of the cultures in the panel grew in under 5 days; −: none of the replicates of the cultures in the panel grew in under 5 days; settings: for Bacteria detected (+) or not detected (−) after treatment: 110 J/mLRBC (n = 3)
Excerpt: (§1) To test whether pathogen inactivation of whole blood was effective in inactivating clinically relevant levels of bacteria which may be present in the whole blood, low titer bacteria studies were done. After pathogen inactivation of whole blood, the whole blood was separated into a red blood cell (RBC) component and platelet rich plasma (PRP) component. A + symbol means that some of the replicates of the cultures in the panel grew in under 5 days. A − symbol means that none of the replicates of the cultures in the panel grew in under 5 days.

[7] = system: Y. enterocolitica; assay: Low bacteria titer study in whole blood; assay type: cell-based; parameters: key: +: some of the replicates of the cultures in the panel grew in under 5 days; −: none of the replicates of the cultures in the panel grew in under 5 days
Excerpt: as §1

[8] = system: A. baumannii; assay: Low bacteria titer study in whole blood; assay type: cell-based; parameters: key: +: some of the replicates of the cultures in the panel grew in under 5 days; −: none of the replicates of the cultures in the panel grew in under 5 days; settings: 110 J/mLRBC (n = 3)
Excerpt: as §1

[9] = system: S. pyogenes; assay: Low bacteria titer study in whole blood; assay type: cell-based; parameters: key: +: some of the replicates of the cultures in the panel grew in under 5 days; −: none of the replicates of the cultures in the panel grew in under 5 days
Excerpt: as §1

[10] = system: S. liquefaciens; assay: Low bacteria titer study in whole blood; assay type: cell-based; parameters: key: +: some of the replicates of the cultures in the panel grew in under 5 days; −: none of the replicates of the cultures in the panel grew in under 5 days
Excerpt: as §1

[11] = system: red blood cells; assay: Mean osmotic fragility of stored red blood cells; assay type: cell-based; settings: stored for 42 days; vs untreated cells
Description: Osmotic fragility during storage of red blood cells separated from pathogen inactivated whole blood was measured. The normal red blood cell is a relatively impermeable biconcave disc which maintains osmotic equilibrium with the surrounding medium. As the surrounding medium becomes hypotonic, fluid will be taken into the cell to maintain stability. Eventually under very hypotonic conditions the cell will fill to capacity and rupture. Red blood cells with damaged membranes have a decreased capacity to expand, and will rupture in mildly hypotonic conditions that fail to lyse normal red cells. […] Mean osmotic fragility (MOF) is a measure of red blood cell membrane fragility. The higher the MOF, the more fragile the red blood cells are. MOF is the concentration of NaCl where 50% of the red blood cells hemolyze.

[12] = system: T cells; assay: CD69 expression after PMA activation (flow cytometry); assay type: cell-based; settings: all energies tested (22, 33 and 44 J/mLRBC)
[13] = system: vesicular stomatitis virus (VSV); assay type: cell-based; settings: as a function of illumination energy
[14] = inflammatory cytokines, 22 J/mlRBC
[15] = inflammatory cytokines, 33 J/mlRBC
[16] = inflammatory cytokines, 44 J/mlRBC
[17] = over 5 days of storage at higher energy levels

With Cc1cc2nc3c(=O)[nH]c(=O)nc-3n(C[C@H](O)[C@H](O)[C@H](O)CO)c2cc1C [riboflavin, 7,8-dimethyl-10-ribityl isoalloxazine] the “% inhibition of IL-10 production” value ([1]; TH1/TH2 cytokines, 22 J/mlRBC) was 99 ± 1%, the “% inhibition of TNFα production” value ([1]; TH1/TH2 cytokines, 22 J/mlRBC) was 92 ± 15% and the “% inhibition of IFN-γ production” value ([1]; TH1/TH2 cytokines, 33 J/mlRBC) was 100 ± 0%. For the same molecule, the “% inhibition of IL-2 production” value ([1]; TH1/TH2 cytokines, 33 J/mlRBC) was 99 ± 1%, the “% inhibition of IL-4 production” value ([1]; TH1/TH2 cytokines, 33 J/mlRBC) was 95 ± 3% and the “% inhibition of IL-5 production” value ([1]; TH1/TH2 cytokines, 33 J/mlRBC) was 99 ± 1%. The “% inhibition of IL-10 production” value ([1]; TH1/TH2 cytokines, 33 J/mlRBC) was 100 ± 0%, the “% inhibition of TNFα production” value ([1]; TH1/TH2 cytokines, 33 J/mlRBC) was 99 ± 1% and the “% inhibition of IFN-γ production” value ([1]; TH1/TH2 cytokines, 44 J/mlRBC) was 100 ± 0%. For the same molecule, the “% inhibition of IL-2 production” value ([1]; TH1/TH2 cytokines, 44 J/mlRBC) was 100 ± 0%, the “% inhibition of IL-4 production” value ([1]; TH1/TH2 cytokines, 44 J/mlRBC) was 97 ± 2% and the “% inhibition of IL-5 production” value ([1]; TH1/TH2 cytokines, 44 J/mlRBC) was 99 ± 1%. For the same molecule, the “% inhibition of IL-10 production” value ([1]; TH1/TH2 cytokines, 44 J/mlRBC) was 100 ± 0%, the “% inhibition of TNFα production” value ([1]; TH1/TH2 cytokines, 44 J/mlRBC) was 100 ± 0% and the “% inhibition of IL-1β production” value [1, 14] was 98 ± 2%. For the same molecule, the “% inhibition of IL-6 production” value [1, 14] was 99 ± 2%, the “% inhibition of IL-8 production” value [1, 14] was 89% and the “% inhibition of IL-10 production” value [1, 14] was 99 ± 1%. The “% inhibition of IL-12 p70 production” value [1, 14] was 98 ± 4%, the “% inhibition of TNFα production” value [1, 14] was 90 ± 12% and the “% inhibition of IL-1β production” value [1, 15] was 100 ± 0%. The “% inhibition of IL-6 production” value [1, 15] was 100 ± 0%, the “% inhibition of IL-8 production” value [1, 15] was 98 ± 2% and the “% inhibition of IL-10 production” value [1, 15] was 100 ± 0%. For the same molecule, the “% inhibition of IL-12 p70 production” value [1, 15] was 99 ± 2%, the “% inhibition of TNFα production” value [1, 15] was 100 ± 0% and the “% inhibition of IL-1β production” value [1, 16] was 100 ± 0%. The “% inhibition of IL-6 production” value [1, 16] was 100 ± 0%, the “% inhibition of IL-8 production” value [1, 16] was 100 ± 0% and the “% inhibition of IL-10 production” value [1, 16] was 100 ± 0%. For the same molecule, the “% inhibition of IL-12 p70 production” value [1, 16] was 97 ± 4%, the “% inhibition of TNFα production” value [1, 16] was 100 ± 0% and the “total concentration of ATP in red blood cells” value [2] was “decrease the total concentration of ATP”. The “inhibition of WBC proliferation / decrease of proliferative response” value ([3]; all tested stimuli and antigen presentation, all energies tested, stimulated control vs stimulated treated cells) was 93-99% and > 90%, the “functional inactivation of white blood cells in whole blood” value ([3]; riboflavin and light) was “functionally inactivates the white blood cells” and the “proliferation in response to PHA, anti-CD3/CD28 and allogeneic stimulator cells” value ([3]; riboflavin+UV light at all energies tested) was “inhibited proliferation”. For the same molecule, the “platelet carbon dioxide production” value [4, 17] was “appears to decrease”, the platelet glucose consumption [4, 17] was “appears to decrease” and the platelet lactate production [4, 17] was “appears to increase”. For the same molecule, the platelet oxygen consumption [4, 17] was “appears to increase”, the “platelet pH” value ([4]; over 5 days of storage, treated and untreated) was “remains the same” and the “log reduction of virus” value [5] was “increases linearly with respect to energy”. For the same molecule, the “Bacteria detected (+) or not detected (−) after treatment” value (from here on “Bacteria detected (+) or not detected”) ([6]; PRP) was “−”, the “Bacteria detected (+) or not detected” value ([6]; RBC) was “+” and the “bacterial growth in red blood cells” value ([6]; 110 J/mLRBC, RBC) was “grew”. The “Bacteria detected (+) or not detected” value ([7]; 80 J/mLRBC (n = 3), PRP) was “−”, the “Bacteria detected (+) or not detected” value ([7]; 80 J/mLRBC (n = 3), RBC) was “−” and the “Bacteria detected (+) or not detected” value ([7]; 110 J/mLRBC (n = 3), PRP) was “−”. The “Bacteria detected (+) or not detected” value ([7]; 110 J/mLRBC (n = 3), RBC) was “−”, the “Bacteria detected (+) or not detected” value ([8]; PRP) was “−” and the “Bacteria detected (+) or not detected” value ([8]; RBC) was “−”. For the same molecule, the “Bacteria detected (+) or not detected” value ([9]; 80 J/mLRBC (n = 3), PRP) was “−”, the “Bacteria detected (+) or not detected” value ([9]; 110 J/mLRBC (n = 3), PRP) was “−” and the “Bacteria detected (+) or not detected” value ([9]; 110 J/mLRBC (n = 3), RBC) was “−”. The “Bacteria detected (+) or not detected” value ([10]; 80 J/mLRBC (n = 3), PRP) was “−”, the “Bacteria detected (+) or not detected” value ([10]; 80 J/mLRBC (n = 3), RBC) was “−” and the “Bacteria detected (+) or not detected” value ([10]; 110 J/mLRBC (n = 3), PRP) was “−”. For the same molecule, the “Bacteria detected (+) or not detected” value ([10]; 110 J/mLRBC (n = 3), RBC) was “−”, the “osmotic fragility (MOF) of red blood cells” value [11] was “slightly more fragile than untreated cells” and the “expression of CD69 on T cells after PMA activation” value [12] was “inhibited expression of CD69”. The “log reduction of virus” value [13] was “increases linearly with respect to energy”.
